{"source": "patent US10765651B2", "about": "“Co-crystals of substituted glycine and uses thereof” (SyneuRx International (Taiwan) Corp., priority 2017, dated 2020)", "key": {"[1]": {"assay": "Hygroscopicity test, condition 3 (dynamic vapor sorption, 0 to 90 to 0% RH)", "type": "physicochemical", "conditions": "DVS, 25° C.", "experimental": "Measurement were taken from 0 to 90 to 0% RH at 25° C. with 10% RH per step with equilibration set to dm/dt+0.01%/min for 10 min or 180 min/step."}, "[2]": {"assay": "physchem", "conditions": "water, thermodynamic from solid"}, "[3]": {"assay": "Hygroscopicity test, condition 2 (humidity chamber, weight change)", "type": "physicochemical"}}}
{"smiles": "CNCC(=O)O", "note": "[N-MG, N-methylglycine, reference compound]", "values": [{"measurement": "Change In Mass (%)", "setting": "[1]; RH 0%", "result": 0.0, "unit": "%"}, {"measurement": "Change In Mass (%)", "setting": "[1]; RH 10%", "result": 0.0, "unit": "%"}, {"measurement": "Change In Mass (%)", "setting": "[1]; RH 20%", "result": 0.0, "unit": "%"}, {"measurement": "Change In Mass (%)", "setting": "[1]; RH 30%", "result": 0.0, "unit": "%"}, {"measurement": "Change In Mass (%)", "setting": "[1]; RH 40%", "result": 0.0, "unit": "%"}, {"measurement": "Change In Mass (%)", "setting": "[1]; RH 50%", "result": 0.0, "unit": "%"}, {"measurement": "Change In Mass (%)", "setting": "[1]; RH 60%", "result": 0.0, "unit": "%"}, {"measurement": "Change In Mass (%)", "setting": "[1]; RH 70%", "result": 38.6, "unit": "%"}, {"measurement": "Change In Mass (%)", "setting": "[1]; RH 80%", "result": 87.4, "unit": "%"}, {"measurement": "Change In Mass (%)", "setting": "[1]; RH 90%", "result": 130.9, "unit": "%"}, {"measurement": "solubility", "setting": "[2]", "result": 660, "unit": "mg/mL"}, {"measurement": "Weight", "setting": "[3]; 30° C., 75% RH, 0 hr", "result": 0.1375, "unit": "g"}, {"measurement": "Outward (appearance)", "setting": "[3]; 30° C., 75% RH, 1 hr", "result": 90, "unit": "%"}, {"measurement": "Weight", "setting": "[3]; 30° C., 75% RH, 1 hr", "result": 0.1585, "unit": "g"}, {"measurement": "Weight change (%), water absorbed", "setting": "[3]; 30° C., 75% RH, 1 hr", "result": "(+15.3%)"}, {"measurement": "Weight", "setting": "[3]; 30° C., 75% RH, 2 hr", "result": 0.1942, "unit": "g"}, {"measurement": "Weight change (%), water absorbed", "setting": "[3]; 30° C., 75% RH, 2 hr", "result": "(+41.2%)"}, {"measurement": "Outward (appearance)", "setting": "[3]; 30° C., 75% RH, 3 hr", "result": "Liquid"}, {"measurement": "Weight", "setting": "[3]; 30° C., 75% RH, 3 hr", "result": 0.2146, "unit": "g"}, {"measurement": "Weight change (%), water absorbed", "setting": "[3]; 30° C., 75% RH, 3 hr", "result": "(+56.1%)"}, {"measurement": "Weight", "setting": "[3]; 30° C., 75% RH, 5 hr", "result": 0.2403, "unit": "g"}, {"measurement": "Weight change (%), water absorbed", "setting": "[3]; 30° C., 75% RH, 5 hr", "result": "(+74.8%)"}, {"measurement": "Weight", "setting": "[3]; 30° C., 75% RH, 24 hr", "result": 0.2884, "unit": "g"}, {"measurement": "Weight change (%), water absorbed", "setting": "[3]; 30° C., 75% RH, 24 hr", "result": "(+109.7%)"}, {"measurement": "Weight", "setting": "[3]; 30° C., 75% RH, 48 hr", "result": 0.2885, "unit": "g"}, {"measurement": "Weight change (%), water absorbed", "setting": "[3]; 30° C., 75% RH, 48 hr", "result": "(+109.8%)"}, {"measurement": "Weight", "setting": "[3]; 30° C., 75% RH, 72 hr", "result": 0.2885, "unit": "g"}, {"measurement": "Weight change (%), water absorbed", "setting": "[3]; 30° C., 75% RH, 72 hr", "result": "(+109.8%)"}, {"measurement": "Outward (appearance)", "setting": "[3]; dry before", "result": "White"}, {"measurement": "Weight", "setting": "[3]; dry before", "result": 0.1375, "unit": "g"}, {"measurement": "Weight change (%)", "setting": "[3]; dry before (change on drying to 0 hr weight)", "result": "(−0%)"}]}
